Measurements: patent US20040081624A1, “Liquid aerosol formulations and aerosol generating devices and methods for generating aerosols” (Chrysalis Technologies Incorporated, priority 2002, published 2004)

Tests used:
Assay type in all cases: physicochemical
[1] = Observation of breakdown products / degradation during aerosol generation; details: carrier including ethanol; summary of tests
Excerpt: Clogging of the capillary size passage of the aerosol generating device was not observed during these tests.

[2] = Aerosol particle size distribution by cascade impactor (MOUDI) of aerosol from heated capillary passage; details: carrier 20 volume % ethanol in water
[3] = Visual inspection of deposited aerosol particles (cascade impactor plates); details: carrier containing varying percentages of ethanol in water
Excerpt: The average MMAD of the aerosol particles was 0.66 microns.
Albuterol aerosol particles produced using a carrier containing varying percentages of ethanol in water as described above were visually analyzed and determined to be dry aerosols.

Structure (SMILES)	degradation [1]	average MMAD of the albuterol aerosol particles [2]	nature of aerosol by visual analysis [3]
CCCC1O[C@@H]2C[C@H]3[C@@H]4CCC5=CC(=O)C=C[C@]5(C)[C@H]4[C@@H](O)C[C@]3(C)[C@]2(C(=O)CO)O1 (stereo partly drawn) [budesonide]	no observable degradation	–	–
CC(C)(C)NCC(O)c1ccc(O)c(CO)c1 (stereo not drawn) [albuterol]	–	about 3 microns	dry aerosols
